Measurements reported in PubChem BioAssay (NCI).
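In this assay, cells in 96-well plates receive the compound at five concentrations for 48 hours. Endpoints are linearly interpolated between the surrounding concentrations. The concentration for 50% growth inhibition is given as GI50. The concentration for full growth arrest is given as TGI.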

Legend:
Experiment in all cases: DTP human tumour cell line panel, 48 h
MCF7 breast = test system: MCF7 breast
MDA-MB-435 = test system: MDA-MB-435
NCI/ADR-RES ovarian = test system: NCI/ADR-RES ovarian
PC-3 prostate = test system: PC-3 prostate
LXFL 529 NSCLC = test system: LXFL 529 NSCLC
SNB-78 CNS = test system: SNB-78 CNS
M19-MEL melanoma = test system: M19-MEL melanoma
MDA-N = test system: MDA-N

| SMILES | GI50 (MCF7 breast) | TGI (MCF7 breast) | GI50 (MDA-MB-435) | TGI (MDA-MB-435) | GI50 (NCI/ADR-RES ovarian) | TGI (NCI/ADR-RES ovarian) | GI50 (PC-3 prostate) | TGI (PC-3 prostate) | TGI (LXFL 529 NSCLC) | TGI (SNB-78 CNS) | TGI (M19-MEL melanoma) | GI50 (MDA-N) | TGI (MDA-N) |
| --- | --- | --- | --- | --- | --- | --- | --- | --- | --- | --- | --- | --- | --- |
| COc1ccc(CC(C)C(C)Cc2ccc(OC)c(OC)c2)cc1OC (stereo not given) | 650 µM | > 1400 µM | > 1400 µM | > 1400 µM | > 1400 µM | > 1400 µM | > 1400 µM | > 1400 µM | – | – | – | – | – |
| NC(=O)c1cccc(Nc2nccc(Nc3cccc(F)c3)n2)c1 | 11 µM | > 25 µM | 6.15 µM | > 25 µM | 8.75 µM | > 25 µM | 8.39 µM | > 25 µM | – | – | – | – | – |
| COc1ccccc1/C=C/C(=O)/C=C/c1ccccc1O | 0.195 µM | 1.73 µM | 1.51 µM | 3.81 µM | 2.86 µM | 15 µM | 0.539 µM | 2.75 µM | – | – | – | – | – |
| Cc1cc(Nc2nc(SCc3ccc(C(=O)Nc4ccc(F)cc4N)cc3)nn3cccc23)n[nH]1 | 0.0518 µM | 29.3 µM | – | – | 1.98 µM | > 100 µM | 0.355 µM | 44.2 µM | – | – | – | – | – |
| COc1ccc(/C=C2/CCc3cc4ccc(OC)cc4[o+]c32)c(O)c1 | 4.31 µM | 22 µM | 1.78 µM | 3.47 µM | 4.16 µM | 50.6 µM | 2.74 µM | 16.2 µM | – | – | – | – | – |
| CCCCCCCCCCN=C(c1ccc(N(C)C)cc1)c1ccc(N(C)C)cc1 | 0.356 µM | > 100 µM | 0.0726 µM | 0.332 µM | 0.406 µM | 42.4 µM | 2.71 µM | > 86 µM | – | – | – | – | – |
| O=C(O)CCC(NC(=S)S)C(=O)O.[Na+].[Zn+2] (stereo not given) | > 50 µM | > 50 µM | > 50 µM | > 50 µM | > 50 µM | > 50 µM | > 50 µM | > 50 µM | – | – | – | – | – |
| O=c1ncccn1C1C=C(CO)C(O)C1O (stereo not given) | – | – | – | – | – | – | – | – | > 50 µM | > 50 µM | – | – | – |
| CC1(C)OC2COC3(CNO)OC(C)(C)OC3C2O1 (stereo not given) | – | – | – | – | – | – | – | – | – | > 100 µM | > 100 µM | – | – |
| COc1ccccc1-c1cc(=O)c2ccc(C)nc2[nH]1 | – | > 100 µM | 22 µM | 48.7 µM | – | > 100 µM | > 100 µM | > 100 µM | – | – | – | 20.1 µM | 41.5 µM |
| CCOC1Oc2ccccc2-c2oc(=O)c(Sc3ccc(C)cc3)cc21 (stereo not given) | 19.8 µM | > 100 µM | 23.6 µM | > 100 µM | 35 µM | > 100 µM | 17.8 µM | > 100 µM | – | – | – | – | – |
| CC(=O)N[C@H](C(=O)N[C@@H](CCCNC(=N)N)C(=O)N[C@@H](CCCCN)C(=O)N[C@@H](CCCNC(=N)N)C(=O)N[C@]1(C)CCCCCC/C=C\CCC[C@@](C)(C(=O)N[C@@H](CCCNC(=N)N)C(=O)N[C@@H](CCC(=O)O)C(=O)N[C@@H](CC(C)C)C(=O)N[C@H](C(=O)N[C@@H](CCC(=O)O)C(N)=O)C(C)C)NC(=O)[C@H](CCC(N)=O)NC(=O)[C@H](CC(C)C)NC(=O)[C@H](CC(C)C)NC(=O)[C@H](CCCNC(=N)N)NC(=O)[C@H](CCCNC(=N)N)NC(=O)[C@H](CC(C)C)NC1=O)C(C)C | 2 µM | 32.9 µM | 1.42 µM | 4.28 µM | 6.82 µM | > 50 µM | 8.24 µM | 23.7 µM | – | – | – | – | – |
| OB1OCc2cc(/C=C/c3cccc(C(F)(F)F)c3)ccc21 | 0.452 µM | 44.4 µM | 5.29 µM | > 100 µM | 0.544 µM | 23.9 µM | 1.88 µM | > 100 µM | – | – | – | – | – |
